Our source for the Kd values is patent publication US20130116182A1, “Factor VIII B Cell Epitope Variants Having Reduced Immunogenicity” (priority 2009, published 2013).

What is called Kd is the free concentration of one partner at which half of the binding sites on the other are occupied at equilibrium, for simple one-to-one binding. High values mean a looser complex, low ones a tighter complex.

The test has as its target BO2C11 Fab fragment. Description: SPR binding of FVIII C2 proteins to immobilized BO2C11 Fab (Biacore T-100, 25° C., 1:1 binding model). Further details: species or system human. The conditions noted are these: equilibrium constant kd/ka, unit printed in Table 12 head. The method, then: All SPR measurements were carried out on a Biacore T-100 instrument (Biacore Life Sciences). […] The BO2C11 Fab fragment (3.9 mg/mL) was diluted 200-fold in 10 mM sodium acetate pH 5.0. The Fab was immobilized by amine coupling, using 1-Ethyl-3-(3-dimethyl-aminopropyl)carbodiimide-HCl and N-hydroxysuccinimide (Biacore) to activate the CM5 surface, then injecting the protein serially in Running Buffer HBS-EP+ until 300±5 resonance units (RUs) corresponding to immobilized protein were recorded, at which point 35 μl ethanolamine was injected to quench the reactive sites on the chip. This immobilization level yielded Rmax values between 30 and 100 RU (most were between 50-75 RU). […] C2 mutant proteins at 0.4 to 50 nM were injected for at least 120 seconds, and dissociation was monitored for 300-900 seconds to determine the association and dissociation rate constants, respectively. […] Resonance signals after regeneration injections were monitored to ensure complete dissociation of the C2 protein before initiating the next experiment. […] C2 mutant proteins with a dissociation constant (kd) at least four times higher than the average kd for WT-C2 were further evaluated by SPR runs at several temperatures to determine the relative contributions of enthalpy and entropy to the binding free energy.
(In general: Surface plasmon resonance follows binding to a sensor surface in real time, without labels.)

As for “A2201P: recombinant His-tagged FVIII C2 domain protein with hemophilic substitution A2201P (SYFTNMFPTWSPSKARLHLQ) [Mutant A2201P]”, binding was put at a Kd of 19 pM.
